From patent US20170001990A1 (Genentech, Inc., priority 2014, published 2017)

What follows are molecules tested against Human recombinant carboxy-terminal his-tagged LDHA (amino acids 2-332) (Homo sapiens, UniProt P00338) (assay: LDHA enzyme inhibition assay (NADH fluorescence)). Settings: LDHA IC50 (μM), 1 nM LDHA, NADH and pyruvate, stereochemistry of tested sample given.
Protocol: Test compounds were diluted in 100% DMSO with 1:3 serial dilutions. […] For the enzyme reaction, serially diluted compounds were added to a mixture of enzyme and NADH. […] Following the baseline read, pyruvate was added to the assay plates and the plates were read with excitation 340 nm and emission 480 nm for 10 minutes every 2.5 seconds. A suitable linear timeframe was selected (150-400 s) to calculate the slope of each concentration tested. The raw data were fitted to 4-parameter dose-response curves using the following equation:
fit=(A+((B−A)/(1+((C/x)̂D))))
inv=(C/((((B−A)/(y−A))−)̂(1/D)))
res=(y−fit) • where A=minimum y, B=maximum y, C=50% y max, and D=slope factor.
The curve bottom was set to the background rate (initial 5 second recording prior to addition of pyruvate) and curve top was set to no inhibitor (DMSO only) control wells rate.
The compounds of the present invention were tested for their capacity to inhibit LDHA activity and activation as described in the enzyme inhibition assay described above.

| SMILES | IC50 [µM] |
| --- | --- |
| O=C1CC(c2ccsc2)(c2cccc(Oc3ccc(F)c(Cl)c3)n2)NC(=O)C1Sc1ccccc1Cl (single isomer, unassigned) [Example 108, 6-(6-(3-chloro-4-fluoro-phenoxy)pyridin-2-yl)-3-((2-chlorophenyl)thio)-6-(thiophen-3-yl) piperidine-2,4-dione] | 0.108 |
| Cc1csc(Nc2cccc(C3(c4ccsc4)CC(=O)C(Sc4ccccc4Cl)C(=O)N3)n2)n1 (centres unmarked) [Example 287, 3-((2-chlorophenyl)thio)-6-(6-((4-methylthiazol-2-yl)amino)pyridin-2-yl)-6-(thiophen-3-yl)piperidine-2,4-dione] | 0.01 |
| COc1ccccc1Oc1cccc(C2(c3ccsc3)CC(=O)C(Sc3ccccc3Cl)C(=O)N2)n1 (single isomer, unassigned) [Example 337, 5-(2-chlorophenyl)sulfanyl-4-hydroxy-2-[6-(2-methoxyphenoxy)-2-pyridyl]-2-(3-thienyl)-1,3-dihydropyridin-6-one] | 0.021 |
| O=C1CC(c2ccsc2)(c2cccc(Oc3ccc(F)c(C(F)F)c3)n2)NC(=O)C1Sc1ccccc1Cl (centres unmarked) [Example 139, 3-(2-chlorophenyl)sulfanyl-6-[6-[3-(difluoro-methyl)-4-fluoro-phenoxy]-2-pyridyl]-6-(3-thienyl) piperidine-2,4-dione] | 0.009 |
| Cc1cnc(Nc2cccc(C3(c4ccsc4)CC(=O)C(Sc4ccccc4Cl)C(=O)N3)n2)s1 (centres unmarked) [Example 288, 3-((2-chlorophenyl)thio)-6-(6-((5-methylthiazol-2-yl)amino)pyridin-2-yl)-6-(thiophen-3-yl)piperidine-2,4-dione] | 0.141 |
| O=C1CC(c2ccsc2)(c2cccc(Oc3ccc(F)c(C(F)(F)F)c3)n2)NC(=O)C1Sc1ccccc1Cl (centres unmarked) [Example 150, 3-(2-chlorophenyl)sulfanyl-6-[6-[4-fluoro-3-(trifluoromethyl)phenoxy]-2-pyridyl]-6-(3-thienyl) piperidine-2,4-dione] | 0.019 |
| Cc1cc(Oc2cccc(C3(c4ccsc4)CC(=O)C(Sc4ccccc4Cl)C(=O)N3)n2)ccc1F (centres unmarked) [Example 51, 5-((2-chlorophenyl)thio)-6′-(4-fluoro-3-methyl-phenoxy)-4-hydroxy-2-(thiophen-3-yl)-2,3-dihydro-[2,2′-bipyridin]-6(1H)-one] | 0.149 |
| CC(COc1cccc(C2(c3ccsc3)CC(=O)C(Sc3ccccc3Cl)C(=O)N2)n1)C1CC1 (centres unmarked) [Example 179, 3-((2-chlorophenyl)thio)-6-(6-(2-cyclopropyl-propoxy)pyridin-2-yl)-6-(thiophen-3-yl)piperidine-2,4-dione] | 0.014 |
| O=C1CC(c2ccsc2)(c2cccc(Nc3ccc(F)c(F)c3Cl)n2)NC(=O)C1Sc1ccccc1Cl (centres unmarked) [Example 329, 6-[6-(2-chloro-3,4-difluoro-anilino)-2-pyridyl]-3-(2-chlorophenyl)sulfanyl-6-(3-thienyl)piperidine-2,4-dione] | 0.037 |
| Cc1cc(Nc2cccc(C3(c4ccsc4)CC(=O)C(Sc4ccccc4Cl)C(=O)N3)n2)nn1C (centres unmarked) [Example 272, 3-((2-chlorophenyl)thio)-6-(6-((1,5-dimethyl-1H-pyrazol-3-yl)amino)pyridin-2-yl)-6-(thiophen-3-yl) piperidine-2,4-dione] | 0.459 |
| O=C1CC(c2ccsc2)(c2cccc(OC3CCC(F)(F)CC3)n2)NC(=O)C1Sc1ccccc1Cl (centres unmarked) [Example 306, 3-((2-chlorophenyl)thio)-6-(6-((4,4-difluoro-cyclohexyl)oxy)pyridin-2-yl)-6-(thiophen-3-yl)piperidine-2,4-dione] | 0.129 |
| O=C1C[C@](c2ccsc2)(c2cccc(Oc3ccc(C(F)(F)F)cc3)n2)NC(=O)C1Sc1ccccc1Cl (stereo partly drawn) [Example 330, (6S)-3-(2-chlorophenyl) sulfanyl-6-(3-thienyl)-6-[6-[4-(trifluoromethyl)phenoxy]-2-pyridyl] piperidine-2,4-dione] | 0.041 |
| CC1(COc2cccc(C3(c4ccsc4)CC(=O)C(Sc4ccccc4Cl)C(=O)N3)n2)CC1 (single isomer, unassigned) [Example 182, 3-(2-chlorophenyl)sulfanyl-6-[6-[(1-methylcyclo-propyl)methoxy]-2-pyridyl]-6-(3-thienyl)piperidine-2,4-dione] | 0.056 |
| O=C1CC(c2ccsc2)(c2cccc(Cc3ccccc3)n2)NC(=O)C1Sc1ccccc1Cl (single isomer, unassigned) [Example 204, 6-(6-benzyl-2-pyridyl)-3-(2-chlorophenyl)sulfanyl-6-(3-thienyl)piperidine-2,4-dione] | 0.007 |
| O=C1CC(c2ccsc2)(c2cccc(Oc3cccc4c3NCCC4)n2)NC(=O)C1Sc1ccccc1Cl (centres unmarked) [Example 109, 3-((2-chlorophenyl)thio)-6-(6-((1,2,3,4-tetrahydro-quinolin-8-yl)oxy)pyridin-2-yl)-6-(thiophen-3-yl)piperidine-2,4-dione] | 0.01 |
| O=C1CC(c2ccsc2)(c2cccc(OCC(F)(F)F)n2)NC(=O)C1Sc1ccccc1Cl (single isomer, unassigned) [Example 82, 3-(2-chlorophenyl)sulfanyl-6-(3-thienyl)-6-[6-(2,2,2-trifluoroethoxy)-2-pyridyl]piperidine-2,4-dione] | 0.049 |

| SMILES | IC50 [µM] |
| --- | --- |
| O=C1CC(c2ccsc2)(c2cccc(NCc3ccc(F)cc3)n2)NC(=O)C1Sc1ccccc1Cl (single isomer, unassigned) [Example 291, 3-((2-chlorophenyl)thio)-6-(6-((4-fluorobenzyl)amino)pyridin-2-yl)-6-(thiophen-3-yl)piperidine-2,4-dione] | 0.093 |
| O=C1C[C@](c2ccsc2)(c2cccc(Oc3ccc(F)nc3Cl)n2)NC(=O)C1Sc1ccccc1Cl (mixture of isomers) [Example 325, (6S)-6-[6-[(2-chloro-6-fluoro-3-pyridyl)oxy]-2-pyridyl]-3-(2-chlorophenyl) sulfanyl-6-(3-thienyl) piperidine-2,4-dione] | 0.162 |
| O=C1CC(c2ccsc2)(c2cccc(CC3CCOCC3)n2)NC(=O)C1Sc1ccccc1Cl (centres unmarked) [Example 267, 3-((2-chlorophenyl)thio)-6-(6-((tetrahydro-2H-pyran-4-yl)methyl)pyridin-2-yl)-6-(thiophen-3-yl) piperidine-2,4-dione] | 1.64 |
| O=C1CC(c2ccc(N3CCOCC3)cc2)(c2cccc(OC3CCCCC3)n2)NC(=O)C1Sc1ccccc1Cl (centres unmarked) [Example 41, 3-((2-chlorophenyl)thio)-6-(6-(cyclohexyloxy)pyridin-2-yl)-6-(4-morpholinophenyl)piperidine-2,4-dione] | 0.016 |
| O=C1CC(c2ccsc2)(c2cccc(OCC3CCCC3)n2)NC(=O)C1Sc1ccccc1Cl (single isomer, unassigned) [Example 194, 3-(2-chlorophenyl)sulfanyl-6-[6-(cyclopentyl-methoxy)-2-pyridyl]-6-(3-thienyl)piperidine-2,4-dione] | 0.005 |
| O=C1CC(c2ccsc2)(c2cccc(Oc3cccc4ncccc34)n2)NC(=O)C1Sc1ccccc1Cl (single isomer, unassigned) [Example 128, 3-(2-chlorophenyl)sulfanyl-6-[6-(5-quinolyloxy)-2-pyridyl]-6-(3-thienyl) piperidine-2,4-dione] | 0.024 |
| O=C1CC(c2ccsc2)(c2cccc(Oc3ccccc3-c3cn[nH]c3)n2)NC(=O)C1Sc1ccccc1Cl (centres unmarked) [Example 18, 3-(2-chlorophenyl)sulfanyl-6-[6-[2-(1H-pyrazol-4-yl)phenoxy]-2-pyridyl]-6-(3-thienyl)piperidine-2,4-dione] | 0.012 |
| CN(c1ccc(F)cc1)c1cccc(C2(c3ccsc3)CC(=O)C(Sc3ccccc3Cl)C(=O)N2)n1 (single isomer, unassigned) [Example 265, 3-((2-chlorophenyl)thio)-6-(6-((4-fluorophenyl) (methyl)amino)pyridin-2-yl)-6-(thiophen-3-yl) piperidine-2,4-dione] | 0.022 |
| O=C1CC(c2ccc(N3CCCCC3)cc2)(c2ccsc2)NC(=O)C1Sc1cc(O)ccc1Cl (centres unmarked) [Example 43] | 0.017 |
| O=C1CC(c2ccsc2)(c2cccc(OCCC3CCCCC3)n2)NC(=O)C1Sc1ccccc1Cl (single isomer, unassigned) [Example 208, 3-(2-chlorophenyl)sulfanyl-6-[6-(2-cyclohexylethoxy)-2-pyridyl]-6-(3-thienyl) piperidine-2,4-dione] | 0.149 |
| O=C1CC(c2ccsc2)(c2cccc(Oc3cccc4cccnc34)n2)NC(=O)C1Sc1ccccc1Cl (centres unmarked) [Example 88, 33-(2-chlorophenyl) sulfanyl-6-[6-(8-quinolyloxy)-2-pyridyl]-6-(3-thienyl)piperidine-2,4-dione] | 0.017 |
| O=C1CC(c2ccsc2)(c2cccc(CCc3ccc(F)cc3)n2)NC(=O)C1Sc1ccccc1Cl (single isomer, unassigned) [Example 268, 3-((2-chlorophenyl)thio)-6-(6-(4-fluorophenethyl)pyridin-2-yl)-6-(thiophen-3-yl)piperidine-2,4-dione] | 0.402 |
| COc1cc(F)cc(Cc2cccc(C3(c4ccsc4)CC(=O)C(Sc4ccccc4Cl)C(=O)N3)n2)c1 (single isomer, unassigned) [Example 156, 3-(2-chlorophenyl)sulfanyl-6-[6-[(3-fluoro-5-methoxy-phenyl)methyl]-2-pyridyl]-6-(3-thienyl) piperidine-2,4-dione] | 0.072 |
| O=C1CC(c2ccsc2)(c2cccc(OCc3ccc(F)cc3)n2)NC(=O)C1Sc1ccccc1Cl (centres unmarked) [Example 300, 3-((2-chlorophenyl)thio)-6-(6-((4-fluorobenzyl)oxy)pyridin-2-yl)-6-(thiophen-3-yl)piperidine-2,4-dione] | 0.144 |
| O=C1CC(c2ccsc2)(c2cccc(OCc3ccccc3)n2)NC(=O)C1Sc1ccccc1Cl (centres unmarked) [Example 68, 6′-(benzyloxy)-5-((2-chlorophenyl)thio)-4-hydroxy-2-(thiophen-3-yl)-2,3-dihydro-[2,2′-bipyridin]-6(1H)-one] | 0.008 |
| O=C1CC(c2ccsc2)(c2cccc(OCC(F)(F)F)n2)NC(=O)C1Sc1ccccc1Cl (single isomer, unassigned) [Example 87, 3-(2-chlorophenyl)sulfanyl-6-(3-thienyl)-6-[6-(2,2,2-trifluoroethoxy)-2-pyridyl]piperidine-2,4-dione] | 0.01 |
